Paper PMC6934184, “Selective DNA-PKcs inhibition extends the therapeutic index of localized radiotherapy and chemotherapy” (The Journal of Clinical Investigation, 2019)

Target: T1, MARK2 (Homo sapiens, UniProt Q7KZI7)
T1 construct: purchased Thermo Fisher Scientific (Life Technologies) SelectScreen
Assay: SelectScreen Z'LYTE
Assay type: biochemical
Method in brief: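 Percent values come from Thermo SelectScreen profiling of NU5455, combining activity and binding assays. CSF1R was run in Z'LYTE format at Km app ATP, and CAMK1 in Adapta format with ATP listed at 10.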

T1 sequence (Q7KZI7 whole entry): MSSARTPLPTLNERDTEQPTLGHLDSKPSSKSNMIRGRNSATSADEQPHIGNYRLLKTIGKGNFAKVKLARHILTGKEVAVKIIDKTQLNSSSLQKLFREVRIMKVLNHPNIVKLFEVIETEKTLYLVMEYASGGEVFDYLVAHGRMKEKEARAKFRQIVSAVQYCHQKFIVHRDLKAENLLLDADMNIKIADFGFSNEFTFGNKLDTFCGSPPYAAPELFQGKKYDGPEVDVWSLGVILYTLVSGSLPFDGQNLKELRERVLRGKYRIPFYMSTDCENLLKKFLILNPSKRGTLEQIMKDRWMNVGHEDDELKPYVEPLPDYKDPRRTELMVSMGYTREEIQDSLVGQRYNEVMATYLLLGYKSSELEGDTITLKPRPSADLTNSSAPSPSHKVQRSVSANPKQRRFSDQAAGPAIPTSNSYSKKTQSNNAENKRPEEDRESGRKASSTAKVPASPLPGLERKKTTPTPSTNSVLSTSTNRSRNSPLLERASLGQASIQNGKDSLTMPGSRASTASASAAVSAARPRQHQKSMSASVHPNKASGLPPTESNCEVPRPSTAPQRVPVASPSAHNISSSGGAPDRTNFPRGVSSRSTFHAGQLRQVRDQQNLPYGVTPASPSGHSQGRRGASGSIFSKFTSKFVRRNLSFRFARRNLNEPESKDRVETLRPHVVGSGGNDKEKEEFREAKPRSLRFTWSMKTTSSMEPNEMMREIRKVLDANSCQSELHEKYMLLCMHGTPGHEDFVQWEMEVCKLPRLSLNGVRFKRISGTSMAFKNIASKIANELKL

Q: How did the inhibition at 1 µM turn out when `CN(C(=O)CN1CCOCC1)c1ccc2sc3c(-c4cccc5c(=O)cc(N6CC7CCC(C6)O7)oc45)cccc3c2c1` [NU5455] was run?
A: 0.1%
